Reference: patent publication US20210100777A1, “HEAT SHOCK PROTEIN (HSP) INHIBITION AND MONITORING EFFECTIVENESS THEREOF” (H. LEE MOFFITT CANCER CENTER AND RESEARCH INSTITUTE, INC., priority 2013, published 2021)

Legend:
[1] = test system: BIM, Mcl-1 and BMF mRNA in vemurafenib-resistant melanoma cell lines; assay: Quantitative real-time PCR; details: M229R; 3 μM, 48 hours
[2] = test system: matched pairs of vemurafenib naïve and resistant melanoma cell lines and melanoma cell lines with intrinsic resistance; assay: Growth inhibition, MTT assay; type: cell-based; details: M229/M229R, M249/M249R, WM164/WM164R, 1205Lu/1205LuR; paired t-test
Procedure: (§1) Growth inhibition. Cells were plated at a density of 2.5×10^4 cells per ml and left to grow overnight before being treated with increasing concentrations of vemurafenib or XL888. After 72 hours, the levels of growth inhibition were examined using the MTT assay (Smalley et al., Br. J. Cancer 96:445-9 (2007)). […] Vemurafenib and XL888 were dissolved in 100% DMSO and stored at −20° C. as a 10 mM solution.
(§2) Statistical analysis of GI50 values. Triplicate experiments were performed for each cell line under each drug treatment. To estimate the IC50 values for each cell line for each treatment, a 4-parameter Hill equation was used to model the nonlinear sigmoid relationship between the drug concentration and % cell survival. Briefly,
(§3) where x is the drug concentration, y is the % survival, ε is the error term. The four parameters in the model to estimate are: 1) the control-level effect (E); 2) the background-level effect (B); 3) the median effect concentration (GI50); and 4) the strength of the inhibition (m). The constraint of non-negative minimum background effect (B) is imposed so the model is biologically meaningful. Levenberg-Marquardt algorithm for nonlinear least squares was used to fit the model and estimate all four parameters for each cell line under each treatment. Estimated concentration at 50% cell survival, i.e., IC50, is estimated using the plugged-in parameters after model fitting. Note that when the control and background effects are 100% and 0%, respectively, the estimated GI50 and IC50 values would be identical. To compare the estimated IC50 values between the resistance and naïve paired of cell lines, after log transformation, a paired t-test was performed for each drug.

RPMI 7951 = assay: Growth inhibition, MTT assay; type: cell-based; details: Homo sapiens, RPMI 7951 (overexpression of COT), 72 hours
Procedure: as §1, §2, §3

WM39 = assay: Growth inhibition, MTT assay; type: cell-based; details: WM39 (amplification of cyclin D1), 72 hours
Procedure: as §1, §2, §3

| Structure (SMILES) | BMF expression [1] | difference in growth inhibition / IC50 between naïve and resistant pairs of cell lines [2] | IC50 (RPMI 7951) | IC50 (WM39) |
| --- | --- | --- | --- | --- |
| Cn1cnc2c(F)c(Nc3ccc(Br)cc3Cl)c(C(=O)NOCCO)cc21 [MEK inhibitor] | robust induction of BMF expression |  |  |  |
| CCCS(=O)(=O)Nc1ccc(F)c(C(=O)c2c[nH]c3ncc(-c4ccc(Cl)cc4)cc23)c1F [vemurafenib, N-(3-{[5-(4-chlorophenyl)-1H-pyrrolo[2,3-b]pyridin-3-yl]carbonyl}-2,4-difluorophenyl)propane-1-sulfonamide] |  | statistically significant difference in the extent of growth inhibition | > 3000 nM | > 3000 nM |
